In patent publication US9132108B2, “Pharmaceutical composition for ameliorating and/or preventing leptin resistance, and use thereof” (HIROSHIMA UNIVERSITY, priority 2009, dated 2015):

Legend:
Format in all cases: in vivo, mouse
[1] = test system: STAT3 phosphorylation in hypothalami; assay: Western blotting of STAT3 phosphorylation in hypothalami 30 min after leptin injection (Example 2); details: Group 4 (high-fat diet+flurbiprofen) vs Group 2; approximately 10 mg/kg per day orally, 8 weeks; 30 minutes after leptin 1 mg/kg via tail vein; significance level <1%
Description: 4 weeks-old male mice (C57BL/6 Cr Slc) had been given normal diet (10 kcal % fat, D12450B, produced by Research Diets, Inc.) or high-fat diet (60 kcal % fat, D12492, produced by Research Diets, Inc.). Flurbiprofen was diluted with drinking water so that the administration amount of flurbiprofen would be approximately 10 mg/kg per day, and was orally administered to the mice in the form of drinking water.
Specifically, mice were divided into four groups each consisting of 7-8 mice. Mice of individual groups were given diets as follows. • Group 1: Normal diet (10 kcal % fat) only • Group 2: High-fat diet (60 kcal % fat) only • Group 3: Normal diet+flurbiprofen • Group 4: High-fat diet+flurbiprofen
A solution prepared by solving mouse-derived leptin (450-31, produced by PeproTech Inc. or 498-OB, rmLeptin, produced by R&D systems) in physiological saline was non-orally administered via tail vein to the mice, which had been given high-fat diet or normal diet for 8 weeks. The non-oral administration was done in such a manner that the administration amount of leptin would be 1 mg/kg. As a control for leptin administration, physiological saline in equal amount was administered to the mice via tail vein.
FIGS. 4 and 5 show the result of Western blotting of STAT3 phosphorylation in hypothalami of mice 30 minutes after leptin injection. […]

plasma leptin levels = assay: Plasma leptin levels by ELISA before and after fasting (Example 3); details: Group 4 (high-fat diet+flurbiprofen) vs Group 2, approximately 10 mg/kg per day orally, 8 weeks
Description: 4 weeks-old male mice (C57BL/6 Cr Slc) had been given normal diet (10 kcal % fat, D12450B, produced by Research Diets, Inc.) or high-fat diet (60 kcal % fat, D12492, produced by Research Diets, Inc.). Flurbiprofen was diluted with drinking water so that the administration amount of flurbiprofen would be approximately 10 mg/kg per day, and was orally administered to the mice in the form of drinking water. Specifically, mice were divided into four groups each consisting of 7-8 mice. Mice of individual groups were given diets as follows. • Group 1: Normal diet (10 kcal % fat) only • Group 2: High-fat diet (60 kcal % fat) only • Group 3: Normal diet+flurbiprofen • Group 4: High-fat diet+flurbiprofen 20-25 μL of blood samples before or after fasting for 28-29.5 hours were obtained from mice via tail vein, which had been given high-fat diet or normal diet for 8 weeks. […] Plasma leptin levels in the supernatants obtained by the centrifugation were measured by ELISA. […] Values in the graph of (a) of FIG. 6 are averages of plasma leptin levels of mice of each group measured before fasting (± their standard deviations) (n=7-8 with respect to each group). Similarly, values in the graph of (b) of FIG. 6 are averages of plasma leptin levels of mice of each group measured after fasting (± their standard deviations) (n=7-8 with respect to each group). […]

mice = assay: Open Field Test, amounts of mice activity (Example 6); details: Group 3 or 4 (flurbiprofen) vs Group 1 or 2 (no flurbiprofen); 10 mg/kg per day orally, 8 weeks
Description: In order to measure the amounts of mice activity, an Open Field Test was carried out. Specifically, 4 weeks-old male mice (C57BL/6 Cr Slc) were divided into four groups each consisting of 15-16 mice. Mice of individual groups were given diets as follows for 8 weeks similarly with Example 5. • Group 1: Normal diet (10 kcal % fat) only • Group 2: High-fat diet (60 kcal % fat) only • Group 3: Normal diet+flurbiprofen • Group 4: High-fat diet+flurbiprofen
Flurbiprofen (F8514, produced by SIGMA) was diluted with drinking water so that the administration amount of flurbiprofen would be 10 mg/kg per day, and was orally administered to the mice in the form of drinking water.
The mice raised for 8 weeks with high-fat diet or normal diet were subjected to the Open Field Test.
The Open Field Test is a test in which mice were put at the center of a square field (48×48 cm) and the amounts of activity of the mice in the new environment were measured in numerals. Specifically, with respect to each of the mice, the amount of activity per 5 minutes was measured using a locomotor activity measuring device (SCANET MV-10MT, produced by Toyo Sangyo Co., Ltd.). The measurements were performed between 16:30 and 17:30 which was a time before feeding behavior of the mice would become active. […]

[2] = test system: mice given high-fat diet for 6 months (leptin resistance); assay: Body weight of leptin-resistant mice (6 months high-fat diet), therapeutic effect (Example 8); details: 3 mg/kg per day orally
Description: In Example 8, effectiveness of flurbiprofen in ameliorating leptin resistance was confirmed by measuring a change in body weight of mice as a reference index. Specifically, 4 weeks-old male mice (C57BL/6 Cr Slc) had been given high-fat diet for 6 months so that leptin resistance would be induced in the mice. Thereafter, the mice were divided into two groups (each consisting of 14 mice), and the mice of individual groups were given the following diets for 3 weeks. • Control group (Cont): normal diet (10 kcal % fat) only • Flurbiprofen-administered group (Ful): normal diet+flurbiprofen Flurbiprofen (F8514, produced by SIGMA) was diluted with drinking water so that the administration amount of flurbiprofen would be 3 mg/kg per day, and was orally administered to the mice in the form of drinking water. The rates of change in body weight of the mice of individual groups were measured with the date when administration of flurbiprofen started (0 week) as a reference. Further, the amount of visceral fat (g) was measured. The visceral fat was extracted from abdomens of the mice and wet weight thereof was measured. FIGS. 13 and 14 show the result. FIG. 13 is a graph showing the rates of change in body weight of the mice of the control group and the mice of the flurbiprofen-administered group. […]

C[C@@H](C(=O)O)c1ccc(-c2ccccc2)c(F)c1 [flurbiprofen]
intensity of STAT3 phosphorylation in hypothalami [1]: significantly higher | plasma leptin levels (plasma leptin levels): significantly lower plasma leptin levels | amounts of activity (locomotor activity, counts/5 min) (mice): no significant difference in the amounts of activity | time after administration at which the effect of ameliorating leptin resistance is observed ([2]; rate of change in body weight vs control group): 1 week | average body weight ([2]; 3 weeks after the administration of flurbiprofen, normal diet after 6 months high-fat diet, before administration 53.479±0.7804 g, control 48.371±0.6387 g, P<0.05): 45.543 ± 1.1103 g
